Molecular target: T1, human SLC6A19 (Homo sapiens, UniProt Q695T7)
T1 construct: expressed in transfected cells
T1 sequence (Q695T7 1-634): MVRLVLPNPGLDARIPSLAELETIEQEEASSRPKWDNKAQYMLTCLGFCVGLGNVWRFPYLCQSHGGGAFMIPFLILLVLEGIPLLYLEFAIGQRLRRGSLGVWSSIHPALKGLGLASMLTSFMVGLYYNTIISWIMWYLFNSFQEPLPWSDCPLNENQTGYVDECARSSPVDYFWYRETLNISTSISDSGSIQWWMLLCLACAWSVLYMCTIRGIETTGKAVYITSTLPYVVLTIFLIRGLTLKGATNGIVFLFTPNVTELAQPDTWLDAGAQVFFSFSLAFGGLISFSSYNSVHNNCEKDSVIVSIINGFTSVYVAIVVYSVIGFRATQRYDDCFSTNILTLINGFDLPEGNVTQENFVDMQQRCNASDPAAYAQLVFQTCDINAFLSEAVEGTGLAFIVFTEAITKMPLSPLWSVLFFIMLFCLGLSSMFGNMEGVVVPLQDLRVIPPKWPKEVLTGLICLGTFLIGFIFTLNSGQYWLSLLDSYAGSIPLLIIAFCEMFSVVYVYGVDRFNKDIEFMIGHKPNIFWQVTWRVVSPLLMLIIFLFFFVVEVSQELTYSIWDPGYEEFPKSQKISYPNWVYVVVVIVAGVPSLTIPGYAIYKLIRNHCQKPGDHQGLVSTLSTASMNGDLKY
T1 sequence (Q9HBJ8 15-222 partner): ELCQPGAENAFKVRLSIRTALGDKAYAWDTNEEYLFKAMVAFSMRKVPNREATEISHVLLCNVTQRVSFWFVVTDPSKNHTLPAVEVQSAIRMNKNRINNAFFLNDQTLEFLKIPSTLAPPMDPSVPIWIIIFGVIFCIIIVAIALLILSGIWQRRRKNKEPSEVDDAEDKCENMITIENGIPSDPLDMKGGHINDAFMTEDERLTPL
Experiment: Example B2: 13C6,15N-isoleucine uptake, RapidFire mass spectrometry, in CHO cells with doxycycline-inducible expression of human SLC6A19 and TMEM27
Format: cell-based
Conditions: read-out: SLC6A19_RapidFire Uptake Assay IC50
Protocol: Assay ready vials of CHO cells with doxycycline inducible expression of human SLC6A19 and TMEM27 were thawed, plated in T175 flasks containing DMEM/F12 media, 10% FBS, 100 Penicillin-Streptomycin, 1× UltraGlutamate, 1 mM Sodium Pyruvate, Sodium Bicarbonate (7.5 mL of 7.5% solution in 500 mL media final), […] Blasticidin, 150 µg/mL Hygromycin B Gold, and 500 µg/mL G418, and incubated (humidified, 37° C. with […]) for 48 hours. Media was then removed, flasks were washed with 20 mL of DPBS, and 5 mL of TryμLE™ Express was added to each flask to initiate cell dissociation. After 5 minutes, 10 mL of cell culture media was added to each flask and mixed. The cell suspension was collected and centrifuged for 5 minutes at 200×g. The supernatant was removed, and the pellet was resuspended in 10 mL of cell culture media. Resuspended cells were counted using a Vi-Cell. 30 μL/well (20,000 cells/well) of cell suspension was added to Poly-D-Lysine 384-well black/clear plates. Plates were incubated (humidified, 37° C. with 5% CO2) for 24 hours. To induce expression of human SLC6A19 and TMEM27, 10 μL of assay culture media containing 4 μg/mL doxycycline was added to each well. Assay plates were then incubated (humidified, 37° C. with 5% CO2) overnight. After incubation, the media was removed, and wells were washed 3 times with 40 μL of warmed DPBS. […] All compounds were plated in a duplicate 10-point dilution series that consisted of 2-fold dilutions. The plates were incubated (humidified, 37° C. with 5% CO2) with compound for 20 minutes. Afterwards, 20 μL/well of 2 mM 13C6,15N-1-isoleucine was added to each well and plates were incubated again (humidified, 37° C. with 5% CO2) for another 20 minutes. Assay buffer was then removed, and plates were washed. 70 μL/well of stop solution (75% acetonitrile, 25% HPLC grade water, 250 nM 1-leucine-1-13 C (RapidFire standard)) was added to each well. The plates were sealed and then placed in a −20° C. freezer for 20 minutes. The plates were thawed at room temperature for 20 minutes and then centrifuge for 20 minutes at 3000 rpm. Using an ABSciex API4000 mass spectrometer, processed samples were loaded onto the graphitic carbon SPE-column. The time for aspiration, load/wash, elution and re-equilibration time was 600, 1500, 3000 and 500 milliseconds, respectively. Peak areas were calculated using RapidFire Integrator software.

Row | Structure (SMILES) | IC50 [nM]
1 | Cc1ncoc1C(=O)N1CCC[C@@H](N(C)C(=O)NCc2cc3cc(Cl)ccc3[nH]2)C1 [Compound 27, (R)-3-((5-chloro-1H-indol-2-yl)methyl)-1-methyl-1-(1-(4-methyloxazole-5-carbonyl)piperidin-3-yl)urea] | 821
2 | CN(C(=O)NCc1cc2cc(Cl)ccc2[nH]1)[C@@H]1CCCN(C(=O)c2ncnn2C)C1 [Compound 28, (R)-3-((5-chloro-1H-indol-2-yl)methyl)-1-methyl-1-(1-(1-methyl-1H-1,2,4-triazole-5-carbonyl)piperidin-3-yl)urea] | > 23400
3 | CN(C(=O)NCc1cc2cc(Cl)ccc2[nH]1)[C@@H]1CCCN(C(=O)CNC(N)=O)C1 [Compound 29, (R)-1-(1-(carbamoylglycyl)piperidin-3-yl)-3-((5-chloro-1H-indol-2-yl)methyl)-1-methylurea] | 2490
4 | CN(C(=O)NCc1cc2cc(Cl)ccc2[nH]1)[C@@H]1CCCN(C(=O)Cn2nccn2)C1 [Compound 30, (R)-1-(1-(2-(2H-1,2,3-triazol-2-yl)acetyl)piperidin-3-yl)-3-((5-chloro-1H-indol-2-yl)methyl)-1-methylurea] | 3700
5 | Cc1cc(C(=O)N2CCC[C@@H](N(C)C(=O)NCc3cc4cc(Cl)ccc4[nH]3)C2)on1 [Compound 31, (R)-3-((5-chloro-1H-indol-2-yl)methyl)-1-methyl-1-(1-(3-methylisoxazole-5-carbonyl)piperidin-3-yl)urea] | 1490
6 | CN(C(=O)NCc1cc2cc(Cl)ccc2[nH]1)[C@@H]1CCCN(C(=O)CS(C)(=O)=O)C1 [Compound 32, (R)-3-((5-chloro-1H-indol-2-yl)methyl)-1-methyl-1-(1-(2-(methylsulfonyl)acetyl)piperidin-3-yl)urea] | 8610
7 | CC(C)C(=O)N1CCC[C@@H](N(C)C(=O)NCc2cc3cc(Cl)ccc3[nH]2)C1 [Compound 33, (R)-3-((5-chloro-1H-indol-2-yl)methyl)-1-(1-isobutyrylpiperidin-3-yl)-1-methylurea] | 405
8 | CN(C(=O)NCc1cc2cc(Cl)ccc2[nH]1)[C@@H]1CCCN(C(=O)c2ccncc2)C1 [Compound 34, (R)-3-((5-chloro-1H-indol-2-yl)methyl)-1-(1-isonicotinoylpiperidin-3-yl)-1-methylurea] | 1400
9 | Cc1cnc(C(=O)N2CCC[C@@H](N(C)C(=O)NCc3cc4cc(Cl)ccc4[nH]3)C2)s1 [Compound 35, (R)-3-((5-chloro-1H-indol-2-yl)methyl)-1-methyl-1-(1-(5-methylthiazole-2-carbonyl)piperidin-3-yl)urea] | 556
10 | Cc1cnoc1C(=O)N1CCC[C@@H](N(C)C(=O)NCc2cc3cc(Cl)ccc3[nH]2)C1 [Compound 36, (R)-3-((5-chloro-1H-indol-2-yl)methyl)-1-methyl-1-(1-(4-methylisoxazole-5-carbonyl)piperidin-3-yl)urea] | 1570
11 | CN(C(=O)NCc1cc2cc(Cl)ccc2[nH]1)[C@@H]1CCCN(C(=O)c2ncc[nH]c2=O)C1 [Compound 37, (R)-3-((5-chloro-1H-indol-2-yl)methyl)-1-methyl-1-(1-(3-oxo-3,4-dihydropyrazine-2-carbonyl)piperidin-3-yl)urea] | 19600
12 | Cc1ncc(C(=O)N2CCC[C@@H](N(C)C(=O)NCc3cc4cc(Cl)ccc4[nH]3)C2)o1 [Compound 38, (R)-3-((5-chloro-1H-indol-2-yl)methyl)-1-methyl-1-(1-(2-methyloxazole-5-carbonyl)piperidin-3-yl)urea] | 428
13 | CN(C(=O)NCc1cc2cc(Cl)ccc2[nH]1)[C@@H]1CCCN(C(=O)c2ccn(C(F)F)n2)C1 [Compound 39, (R)-3-((5-chloro-1H-indol-2-yl)methyl)-1-(1-(1-(difluoromethyl)-1H-pyrazole-3-carbonyl)piperidin-3-yl)-1-methylurea] | 231
14 | CCC(O)C(=O)N1CCC[C@@H](N(C)C(=O)NCc2cc3cc(Cl)ccc3[nH]2)C1 (stereo partly drawn) [Compound 40, 3-((5-chloro-1H-indol-2-yl)methyl)-1-((3R)-1-(2-hydroxybutanoyl)piperidin-3-yl)-1-methylurea] | 5250
15 | Cc1cc(C(=O)N2CCC[C@@H](N(C)C(=O)NCc3cc4cc(Cl)ccc4[nH]3)C2)[nH]n1 [Compound 41, (R)-3-((5-chloro-1H-indol-2-yl)methyl)-1-methyl-1-(1-(3-methyl-1H-pyrazole-5-carbonyl)piperidin-3-yl)urea] | 854
16 | CN(C(=O)NCc1cc2cc(Cl)ccc2[nH]1)[C@@H]1CCCN(C(=O)c2cccc(F)c2F)C1 [Compound 42, (R)-3-((5-chloro-1H-indol-2-yl)methyl)-1-(1-(2,3-difluorobenzoyl)piperidin-3-yl)-1-methylurea] | 1240
17 | COC(C)C(=O)N1CCC[C@@H](N(C)C(=O)NCc2cc3cc(Cl)ccc3[nH]2)C1 (stereo partly drawn) [Compound 43, 3-((5-chloro-1H-indol-2-yl)methyl)-1-((3R)-1-(2-methoxypropanoyl)piperidin-3-yl)-1-methylurea] | 6250
18 | CN(C(=O)NCc1cc2cc(Cl)ccc2[nH]1)[C@@H]1CCCN(C(=O)C2CC(F)(F)C2)C1 [Compound 44, (R)-3-((5-chloro-1H-indol-2-yl)methyl)-1-(1-(3,3-difluorocyclobutane-1-carbonyl)piperidin-3-yl)-1-methylurea] | 350
19 | CN(C(=O)NCc1cc2cc(Cl)ccc2[nH]1)[C@@H]1CCCN(C(=O)C2(C)CC2)C1 [Compound 45, (R)-3-((5-chloro-1H-indol-2-yl)methyl)-1-methyl-1-(1-(1-methylcyclopropane-1-carbonyl)piperidin-3-yl)urea] | 1550
20 | CN(C(=O)NCc1cc2cc(Cl)ccc2[nH]1)[C@@H]1CCCN(C(=O)CCC(N)=O)C1 [Compound 46, (R)-4-(3-(3-((5-chloro-1H-indol-2-yl)methyl)-1-methylureido)piperidin-1-yl)-4-oxobutanamide] | 1240
21 | CN(C(=O)NCc1cc2cc(Cl)ccc2[nH]1)[C@@H]1CCCN(C(=O)c2cc(CO)on2)C1 [Compound 47, (R)-3-((5-chloro-1H-indol-2-yl)methyl)-1-(1-(5-(hydroxymethyl)isoxazole-3-carbonyl)piperidin-3-yl)-1-methylurea] | 2460
22 | CN(C(=O)NCc1cc2cc(Cl)ccc2[nH]1)[C@@H]1CCCN(C(=O)C2CCC2)C1 [Compound 48, (R)-3-((5-chloro-1H-indol-2-yl)methyl)-1-(1-(cyclobutanecarbonyl)piperidin-3-yl)-1-methylurea] | 44.2
23 | CN(C(=O)NCc1cc2cc(Cl)ccc2[nH]1)[C@@H]1CCCN(C(=O)CC2CC2)C1 [Compound 49, (R)-3-((5-chloro-1H-indol-2-yl)methyl)-1-(1-(2-cyclopropylacetyl)piperidin-3-yl)-1-methylurea] | 371
24 | CN(C(=O)NCc1cc2cc(Cl)ccc2[nH]1)[C@@H]1CCCN(C(=O)C(C)(O)C(F)(F)F)C1 (stereo partly drawn) [Compound 50, 3-((5-chloro-1H-indol-2-yl)methyl)-1-methyl-1-((3R)-1-(3,3,3-trifluoro-2-hydroxy-2-methylpropanoyl)piperidin-3-yl)urea] | 4770
25 | CN(C(=O)NCc1cc2cc(Cl)ccc2[nH]1)[C@@H]1CCCN(C(=O)c2ccnn2C)C1 [Compound 51, (R)-3-((5-chloro-1H-indol-2-yl)methyl)-1-methyl-1-(1-(1-methyl-1H-pyrazole-5-carbonyl)piperidin-3-yl)urea] | 4800
